Test results: patent publication US6469028B1, “Synthesis and use of retinoid compounds having negative hormone and/or anatgonist activities” (Allergan, Inc., priority 1995, dated 2002)

Tests used:
RARγ = target: T1, RARγ (Homo sapiens, UniProt P13631); experiment: Holoreceptor transactivation assay; format: cell-based; set-up: expressed in transfected cells; host or cells: CV1 cells; conditions: relative to all trans retinoic acid; read-out: Transactivation Assay Efficacy (% of RA activity) RARγ
T1 sequence (P13631 1-454): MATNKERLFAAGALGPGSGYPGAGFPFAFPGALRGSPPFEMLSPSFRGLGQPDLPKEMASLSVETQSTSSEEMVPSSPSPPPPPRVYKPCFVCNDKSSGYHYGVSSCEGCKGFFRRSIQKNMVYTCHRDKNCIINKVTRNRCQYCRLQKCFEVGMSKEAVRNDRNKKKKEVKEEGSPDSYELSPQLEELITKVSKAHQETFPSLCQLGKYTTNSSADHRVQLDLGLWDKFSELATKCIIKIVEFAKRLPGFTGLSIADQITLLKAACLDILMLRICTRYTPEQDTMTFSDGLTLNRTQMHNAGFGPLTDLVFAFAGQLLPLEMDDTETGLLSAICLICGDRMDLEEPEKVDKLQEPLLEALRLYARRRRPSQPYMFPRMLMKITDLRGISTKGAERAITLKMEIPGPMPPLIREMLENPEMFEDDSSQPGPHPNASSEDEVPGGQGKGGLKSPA

RARα = target: T2, RARα (Homo sapiens, UniProt P10276); experiment: Holoreceptor transactivation assay; format: cell-based; set-up: expressed in transfected cells; host or cells: CV1 cells; conditions: relative to all trans retinoic acid; read-out: Transactivation Assay Efficacy (% of RA activity) RARα
T2 sequence (P10276 1-462): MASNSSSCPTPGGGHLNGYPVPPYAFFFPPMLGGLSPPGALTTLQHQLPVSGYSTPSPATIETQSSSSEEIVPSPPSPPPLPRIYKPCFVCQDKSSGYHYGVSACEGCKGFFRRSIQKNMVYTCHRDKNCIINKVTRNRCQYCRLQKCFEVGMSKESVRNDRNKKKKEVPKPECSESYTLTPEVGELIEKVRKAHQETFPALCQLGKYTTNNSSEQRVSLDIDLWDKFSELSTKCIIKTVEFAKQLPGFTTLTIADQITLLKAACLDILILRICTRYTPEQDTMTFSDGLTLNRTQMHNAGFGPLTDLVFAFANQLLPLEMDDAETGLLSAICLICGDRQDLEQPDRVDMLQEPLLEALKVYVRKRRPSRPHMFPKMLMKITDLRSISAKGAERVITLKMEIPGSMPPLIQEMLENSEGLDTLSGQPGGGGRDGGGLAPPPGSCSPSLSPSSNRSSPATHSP

SMILES | Emax (RARγ) [%] | Emax (RARα) [%]
Cc1ccc(C2=CCC(C)(C)c3ccc(C(=S)Nc4ccc(C(=O)O)c(F)c4)cc32)cc1 [Compound 63, 2-fluoro-4-[[(5,6-dihydro-5,5-dimethyl-8-(4-methylphenyl)-2-naphthalenyl)thiocarbonyl]amino]-benzoic acid] | 7 | 2
Cc1ccc(C2=CCC(C)(C)c3cc(C(=O)C=Cc4ccc(C(=O)O)cc4)ccc32)cc1 [Compound 101, 4-[3-oxo-3-(7,8-dihydro-5-(4-methylphenyl)-8,8-dimethyl-2-naphthalenyl)-1-propenyl]-benzoic acid] | 2 | 0
CC1(C)CC=C(c2ccccc2)c2ccc(C(=O)C=Cc3ccc(C(=O)O)cc3)cc21 [Compound 103, 4-[3-oxo-3-(7,8-dihydro-5-phenyl-8,8-dimethyl-2-naphthalenyl)-1-propenyl]-benzoic acid] | 7 | 4
